Data as given in paper PMC4885110, “Structure-Based Design of an in Vivo Active Selective BRD9 Inhibitor” (Journal of Medicinal Chemistry, 2016).

Columns and labels:
Aqueous solubility = assay type: physicochemical; conditions: aqueous McIlvaine buffer, pH 6.8
Method: (§1) this tumor mouse model body weight changes can occur due to increased tumor load or due to […]
(§2) Determination of physicochemical and in vitro DMPK parameters […]
(§3) diluted with aqueous McIlvaine buffer at pH 6.8, or with acetonitrile/water (1:1) as a reference. Samples were shaken for 24 h at room temperature in 96-well plates (Whatman Uniplate® 96 wells, 750 µL, polypropylene, round bottom). The plate was then centrifuged at 3,000 rpm for 2 min. 250 µL of each sample were transferred to a Millipore MultiScreenHTS filter plate with a polycarbonate membrane, pore size 0.45 μm. Filtrates were collected by centrifugation at 3,000 rpm for 2 min. The dissolved concentrations were determined by UPLC/UV on a Waters ACQUITY UPLC® SQD system equipped with a Waters ACQUITY UPLC® BEH 2.1x50 mm C18 column, particle size 1.7 µm, using a short gradient with water/0.1% formic acid as solvent A and acetonitrile/0.1 % formic acid as solvent B (5 to 95 % B with 1.7 min total cycle time). Compound signals were measured with a photodiode array UV detector operated at 254 nm. Solubility was determined with a one point calibration by comparing peak areas relative to the reference standard using Waters Empower software. […]

[1] = Hepatocytes predicted clearance, human; assay type: in vitro ADME
Method: as §1, §2, §3
(§4) In vitro plasma protein binding (PPB) was determined by a semi-automated equilibrium dialysis assay on a Tecan robotic system at a test compound concentration of 3 µM. […]

U2OS cells = assay: Toxicity in U2OS cells; assay type: cell-based; conditions: after 24 h
Method: Figure 4 FRAP assay using U2OS cells transfected with GFP–BRD9. (a) Recovery half times of wild-type (wt) cells treated with DMSO in the absence or presence of 2.5 μM SAHA or treated with 1 at 1 μM and SAHA as indicated. In addition, cells expressing GFP–BRD9 with a BD-inactivating mutation (N100F) were analyzed. Significant differences relative to cells treated with SAHA (p < 0.0001) are shown by ****. (b) Time dependence of fluorescence recovery in the bleached area of cells expressing wt or mutant GFP–BRD9 with the corresponding treatments shown in (a). (c) Recovery half times of cells expressing wt GFP–BRD9 treated with various concentrations of DMSO and 2 in the presence or absence of SAHA as indicated. Cells expressing the GFP–BRD9 mutant (N100F) were treated as indicated. Significant differences relative to cells treated with SAHA (p < 0.0001) are shown by ****. (d) Time dependence of fluorescence recovery in the bleached area of cells expressing wt or mutant GFP–BRD9 with the corresponding treatments shown in (c). Curves represent averaged data of at least 20 replicates. […] The N100F construct is a negative control BRD9 mutant in which Asn100 is replaced by Phe100 and therefore acetylated histone cannot bind because of the lack of interaction to the anchor Asn and because of steric hindrance. […]

[2] = Hepatocytes predicted clearance, mouse; assay type: in vitro ADME
Method: as §1, §2, §3, §4

[3] = assay type: in vivo; conditions: Mouse 5 mg/kg i.v. bolus
Source text: Mice were housed under pathogen-free conditions (AAALAC accredited facility) and treated according to the institutional, governmental and European Union guidelines (GV-SOLAS, Felasa, Austrian Animal Protection Laws). All animal studies were reviewed and approved by the internal ethics committee of Boehringer Ingelheim and the local governmental committee (Amt der Wiener Landesregierung, Magistratsabteilung 58, Vienna, Austria).
Pharmacokinetic and efficacy studies in mice […]
Following injection of the cells animals were randomized based on body weight (n=10/group). […] All doses were calculated relative to the mouse body weight on the treatment day. […]
body weight loss. Tumour load was measured 2-3 times weekly based on bioluminescence imaging as described previously. […]
1x10^6 cells/mL were incubated and continuously shaken in a Thermo Scientific Cytomat™ for 4 h at 85-95% relative humidity and 5-10% CO2 at 37 °C. Aliquots were taken from the medium at 0, 0.5, 1, 1.5, 2.5 und 4 h and concentrations of the test compounds quantified by HPLC/MS/MS on a BIOCIUS Life Sciences RapidFire® system coupled to a Thermo Scientific™ TSQ Vantage™ triple-quadrupole mass spectrometer. Predicted clearances were calculated using the well-stirred model.
as §4

[4] = Hepatocytes predicted clearance, rat; assay type: in vitro ADME
Method: as §1, §2, §3, §4

[5] = 1 week tolerability study in non-tumor-bearing CIEA-NOG mice; assay type: in vivo; conditions: 180 mg/kg, continuous daily dosing, female CIEA-NOG mice
[6] = Disseminated EOL-1 AML mouse model; assay type: in vivo; conditions: female, CIEA-NOG, po, 180 mg/kg p.o., plasma, last day of treatment
[7] = parameters: method as in earlier work; conditions: cited from earlier work

Structure (SMILES)	solubility at 24 h (Aqueous solubility) [µg/mL]	Hepatocytes pred. CL human [1] [% QH]	toxicity in U2OS cells (U2OS cells)	Hepatocytes pred. CL mouse [2] [% QH]	plasma CL [3] [% QH]	Hepatocytes pred. CL rat [4] [% QH]	tolerability [5]	AUC(0-t) [6] [µM·h]	membrane permeability [7] [nM/s]
COc1cc(-c2cn(C)c(=O)c3cnccc23)cc(OC)c1CN(C)C [Compound 1, n1cc2c(cc1)C(=CN(C2=O)C)c1cc(c(c(c1)OC)CN(C)C)OC]	> 91	17	no toxicity	58	57	< 7			
COc1cc(-c2cn(C)c(=O)c3cnccc23)c(OC)cc1CN(C)C [Compound 2, 4-{4-[(Dimethylamino)methyl]-2,5-dimethoxyphenyl}-2-methyl-1,2-dihydro-2,7-naphthyridin-1-one]	> 90	17	no toxicity	56	65	17	well-tolerated	268	
CCn1cc(-c2cccc(C(F)(F)F)c2)c2sc(C(=N)NC3CCS(=O)(=O)CC3)cc2c1=O [I-BRD9]									210
